From patent publication US12064420B2, “Tie-2 activators targeting the Schlemm's canal” (EyePoint Pharmaceuticals, Inc., priority 2019, dated 2024)

What was measured:
[1] = test system: patients with moderate to severe non-proliferative diabetic retinopathy; experiment: Phase 2 48-week trial: IOP after subcutaneous Compound 1 QD or BID, non-proliferative diabetic retinopathy; assay type: in vivo, human; details: for mean reduction in IOP compared to placebo: MMRM ANCOVA; for Week 12 IOP change from BL, mean (SD) / Week 12 IOP, mean (SD) / Week 36 IOP change from BL, mean (SD) / Week 36 IOP, mean (SD) / Week 48 IOP change from BL, mean (SD) / Week 48 IOP, mean (SD) / Week 24 IOP change from BL, mean (SD) / Week 24 IOP, mean (SD): averaged over both eyes; for Week 24 IOP change from BL, mean (SD) / Week 24 IOP, mean (SD): measured predose
Text: Eligible subjects were aged 18 to 80 years with moderate to severe NPDR. The major inclusion criteria for the qualified eyes included Early Treatment Diabetic Retinopathy Study (ETDRS) Severity Score≥43 and ≤53, no evidence of central involved diabetic macular edema (DME) and ETDRS≥70 letters using the ETDRS visual acuity charts. Study eye ocular exclusion criteria included uncontrolled glaucoma defined as IOP≥30 mm Hg on maximum IOP reduction therapy. Subjects were randomized 1:1:1 to either Compound 1, 15 mg once daily (QD), Compound 1, 15 mg twice daily (BID), or placebo BID treatment groups. Subjects self-administered the masked study medication (Compound 1 or placebo) supplied as sterile pre-filled single-use syringes. Subjects visited the clinical site monthly during the 48-week treatment period. A battery of comprehensive ophthalmic evaluations including IOP assessments were conducted every 12-weeks with either applanation tonometry or Tono-Pen® and the methodology was consistent throughout the study. On Day 1 and Week 24, IOP was measured prior to dosing. IOP data were analyzed using a mixed-model repeated measures ANCOVA, with visit as the repeated measure within subject. The model included change from baseline as the dependent variable. The p-value from the model was adjusted by baseline IOP. 167 patients with moderate to severe non-proliferative diabetic retinopathy (NPDR) without diabetic macular edema (DME) and a visual acuity of 20/40 or better were enrolled in a 48-week study of the effect of Compound 1 (sodium salt) in the treatment of NPDR. The IOP was measured at baseline, and at weeks 12, 24, 36, and 48. The trial consisted of three study arms: 1) patients receiving 15 mg of Compound 1 subcutaneously BID; 2) patients receiving placebo subcutaneously QD, and 15 mg of Compound 1 subcutaneously QD; and 3) patients receiving a placebo subcutaneously BID.

C57 mice = experiment: IOP in mice after once daily topical dosing (rebound tonometry); assay type: in vivo, mouse
Procedure: Mice were handled in accordance with acceptable animal care and use guidelines. C57BL/6 (C57) mice were bred/housed in clear cages and kept in housing rooms at 21° C. with a 12 h: 12 h light-dark cycle. Mice were examined at ages between 4 to 6 months old.
Each animal was randomly assigned to receive one masked treatment (eye drops, 4% Compound 1 or vehicle) in one eye and the other masked treatment in the contralateral eye once daily for three consecutive days. IOPs of both eyes were measured prior to eye drop administration using rebound tonometry between 11 am and 1 pm daily. After collecting IOP measurements on the third day, a final drop of Compound 1 or placebo was administered and TOP was measured again 2 and 4 hours later. For TOP measurements, mice were anesthetized with ketamine (60 mg/kg) and xylazine (6 mg/kg). TOP was immediately measured as the mice stopped moving, while drifting into light sleep, but before becoming anesthetized. Each TOP measurement that was recorded was a result of an average of six independent measurements per time point, giving a total of […] measurements from the same eye.

Compound: COC(=O)N[C@@H](Cc1ccccc1)C(=O)N[C@@H](Cc1ccc(NS(=O)(=O)O)cc1)c1csc(-c2cccs2)n1 [Compound 1, 4-{(S)-2-[(S)-2-(Methoxycarbonylamino)-3-phenylpropanamido]-2-[2-(thiophen-2-yl)thiazol-4-yl]ethyl}phenylsulfamic acid]
- mean reduction in IOP compared to placebo ([1]; 15 mg SC BID): 1.15 mmHg
- Week 12 IOP change from BL, mean (SD) ([1]; 15 mg SC BID): −0.91 (3.20) mmHg
- Week 12 IOP, mean (SD) ([1]; 15 mg SC BID): 14.6 (2.93) mmHg
- Week 36 IOP change from BL, mean (SD) ([1]; 15 mg SC BID): −1.48 (3.48) mmHg
- Week 36 IOP, mean (SD) ([1]; 15 mg SC BID): 14.0 (2.74) mmHg
- Week 48 IOP change from BL, mean (SD) ([1]; 15 mg SC BID): −0.94 (3.00) mmHg
- Week 48 IOP, mean (SD) ([1]; 15 mg SC BID): 14.6 (2.73) mmHg
- Week 24 IOP change from BL, mean (SD) ([1]; 15 mg SC BID): −1.27 (3.31) mmHg
- Week 24 IOP, mean (SD) ([1]; 15 mg SC BID): 14.2 (2.60) mmHg
- mean reduction in IOP compared to placebo ([1]; 15 mg SC QD): 0.70 mmHg
- Week 12 IOP change from BL, mean (SD) ([1]; 15 mg SC QD): −0.56 (2.83) mmHg
- Week 12 IOP, mean (SD) ([1]; 15 mg SC QD): 15.3 (2.75) mmHg
- Week 36 IOP change from BL, mean (SD) ([1]; 15 mg SC QD): −0.94 (3.39) mmHg
- Week 36 IOP, mean (SD) ([1]; 15 mg SC QD): 14.9 (3.58) mmHg
- Week 48 IOP change from BL, mean (SD) ([1]; 15 mg SC QD): −0.72 (2.80) mmHg
- Week 48 IOP, mean (SD) ([1]; 15 mg SC QD): 15.2 (2.84) mmHg
- Week 24 IOP change from BL, mean (SD) ([1]; 15 mg SC QD): −0.56 (2.99) mmHg
- Week 24 IOP, mean (SD) ([1]; 15 mg SC QD): 15.3 (2.90) mmHg
- decrease of IOP (C57 mice; 4% topical QD, Day 3, 2 and 4 hours after treatment): ~30%
- change in IOP relative to Day 0, mean±standard error (C57 mice; 4% topical QD, just prior to dosing on Day 1): −0.74±0.43 mmHg
- change in IOP relative to Day 0, mean±standard error (C57 mice; 4% topical QD, just prior to dosing on Day 2): −1.00±0.27 mmHg
- change in IOP relative to Day 0, mean±standard error (C57 mice; 4% topical QD, prior to dosing on Day 3): −1.6±0.3 mmHg
- change in IOP compared to both Day 0 pretreatment and placebo treatment, mean±SE (C57 mice; Day 3, 2 hours after treatment): −3.85±1.1 mmHg
- change in IOP compared to only placebo-treated eyes, mean±SE (C57 mice; Day 3, 2 hours after treatment): −5.66±1.0 mmHg
- change in IOP compared to both Day 0 pretreatment and placebo treatment, mean±SE (C57 mice; Day 3, 4 hours after treatment): −3.1±0.6 mmHg
- change in IOP compared to only placebo-treated eyes, mean±SE (C57 mice; Day 3, 4 hours after treatment): −4.87±0.75 mmHg
